Drawing on ChEMBL document CHEMBL5465560, “Selectivity Literature for EUbOPEN Chemogenomic Library” (2024), this text covers % of control for one molecule.

What all share (assay type): cell-based
Details in all cases: at 1 µM

Test [1] relates to T1, Receptor-type tyrosine-protein kinase FLT3 (Homo sapiens), P36888 [D835Y].
T1 sequence (whole entry): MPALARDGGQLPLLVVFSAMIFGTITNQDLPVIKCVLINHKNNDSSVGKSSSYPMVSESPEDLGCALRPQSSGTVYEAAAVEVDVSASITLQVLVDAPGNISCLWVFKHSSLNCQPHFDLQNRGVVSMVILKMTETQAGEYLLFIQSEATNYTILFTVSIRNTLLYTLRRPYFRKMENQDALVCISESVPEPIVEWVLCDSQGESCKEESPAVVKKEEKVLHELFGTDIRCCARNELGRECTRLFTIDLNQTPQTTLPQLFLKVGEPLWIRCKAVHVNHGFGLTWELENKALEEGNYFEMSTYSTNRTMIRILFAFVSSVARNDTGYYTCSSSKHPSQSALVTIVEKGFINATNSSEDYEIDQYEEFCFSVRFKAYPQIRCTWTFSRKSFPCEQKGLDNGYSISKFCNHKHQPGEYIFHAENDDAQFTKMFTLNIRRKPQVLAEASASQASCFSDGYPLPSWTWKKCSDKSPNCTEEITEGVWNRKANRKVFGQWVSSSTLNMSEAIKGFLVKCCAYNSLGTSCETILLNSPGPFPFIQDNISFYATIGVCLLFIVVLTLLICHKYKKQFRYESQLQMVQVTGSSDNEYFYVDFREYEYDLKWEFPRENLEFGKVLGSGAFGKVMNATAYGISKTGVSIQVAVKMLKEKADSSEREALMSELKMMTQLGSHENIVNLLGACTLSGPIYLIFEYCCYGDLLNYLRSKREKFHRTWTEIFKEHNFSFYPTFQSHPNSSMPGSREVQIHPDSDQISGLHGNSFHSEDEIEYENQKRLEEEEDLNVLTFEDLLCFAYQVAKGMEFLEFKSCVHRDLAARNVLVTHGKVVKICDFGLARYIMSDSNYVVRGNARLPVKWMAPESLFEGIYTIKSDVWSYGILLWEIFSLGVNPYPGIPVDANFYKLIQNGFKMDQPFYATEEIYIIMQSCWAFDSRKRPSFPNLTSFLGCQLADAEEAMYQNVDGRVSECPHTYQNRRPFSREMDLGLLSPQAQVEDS
Nature of the test: (§1) Selectivity interaction (Ambit KINOMEscan and KiNATiv profiling in Jurkat cells) EUB0000090b FLT3.

Test [2] concerns T2, Receptor-type tyrosine-protein kinase FLT3 (Homo sapiens), P36888 [R834Q].
T2 sequence (whole entry): T1 sequence (whole entry) with R834Q, Y835D
Described as §1.

Test [3] has as its system T3, Receptor-type tyrosine-protein kinase FLT3 (Homo sapiens), P36888 [N841I].
T3 sequence (whole entry): T1 sequence (whole entry) with Y835D, N841I
Described as §1.

Residue numbers refer to the chain shown, from its start.

As to `CN(C)C/C=C/C(=O)Nc1ccc(C(=O)N2CCCC(Nc3ncc(Cl)c(-c4c[nH]c5ccccc45)n3)C2)cc1` (stereo not drawn), the results for the % of control in test [1], in test [2] and in test [3] were 76%, 92% and 89%, respectively.
